# Source: PubChem BioAssay AID1963984 (Molecular Pharmacology Branch, DTP, NCI, 2024)
# Test system: 233499-124-R-J3-PDC spheroids with HUVEC/MSC, viability
# Assay: Anticancer human tumor 233499-124-R-J3-PDC patient-derived colon adenocarcinoma cell line growth inhibition [PI3K]
# Settings: for IC50: curve of first compound; for viability, T/C: stronger effect = lower value
# Method in brief: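 Multi-cell spheroids combine tumor cells with HUVEC and human MSCs, treated with targeted agents alone or with inavolisib, alpelisib, duvelisib or copanlisib. Concentrations fall in half-log steps from at or near clinical Cmax, or from 10 microM where Cmax is unknown; viability read-out.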
# [1] = second compound 0.00316 µM, first compound 0.00316 µM
# [2] = second compound 0.00316 µM, first compound 0.01 µM
# [3] = second compound 0.00316 µM, first compound 0.0316 µM
# [4] = second compound 0.00316 µM, first compound 0.1 µM
# [5] = second compound 0.01 µM, first compound 0.00316 µM
# [6] = second compound 0.01 µM, first compound 0.01 µM
# [7] = second compound 0.01 µM, first compound 0.0316 µM
# [8] = second compound 0.01 µM, first compound 0.1 µM
# [9] = second compound 0.0316 µM, first compound 0.00316 µM
# [10] = second compound 0.0316 µM, first compound 0.01 µM
# [11] = second compound 0.0316 µM, first compound 0.0316 µM
# [12] = second compound 0.0316 µM, first compound 0.1 µM
# [13] = second compound 0.1 µM, first compound 0.00316 µM
# [14] = second compound 0.1 µM, first compound 0.01 µM
# [15] = second compound 0.1 µM, first compound 0.0316 µM
# [16] = second compound 0.1 µM, first compound 0.1 µM
# [17] = second compound 0.316 µM, first compound 0.00316 µM
# [18] = second compound 0.316 µM, first compound 0.01 µM
# [19] = second compound 0.316 µM, first compound 0.0316 µM
# [20] = second compound 0.316 µM, first compound 0.1 µM
# [21] = second compound 1 µM, first compound 0.00316 µM
# [22] = second compound 1 µM, first compound 0.01 µM
# [23] = second compound 1 µM, first compound 0.0316 µM
# [24] = second compound 1 µM, first compound 0.1 µM
# 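Further: spheroids exposed to agents for seven days before readout.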
# 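Wherever viability, T/C is given: percent viability relative to DMSO vehicle control taken as 100%.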
compound,measurement,setting,value
Cn1cnc2c(F)c(Nc3ccc(Br)cc3Cl)c(C(=O)NOCCO)cc21 + CC(Nc1ccc2c(c1)OCCn1cc(N3C(=O)OCC3C(F)F)nc1-2)C(N)=O,IC50,second compound 0.00316 µM,479 nM
same,IC50,second compound 0.01 µM,541 nM
same,IC50,second compound 0.0316 µM,262 nM
same,IC50,second compound 0.1 µM,200 nM
same,IC50,second compound 0.316 µM,134 nM
same,IC50,second compound 1 µM,17.1 nM
same,"viability, T/C","second compound 0.00316 µM, first compound 0.00949 µM",85%
same,"viability, T/C","second compound 0.00316 µM, first compound 0.03 µM",80%
same,"viability, T/C","second compound 0.00316 µM, first compound 0.0949 µM",75.1%
same,"viability, T/C","second compound 0.00316 µM, first compound 0.3 µM",57%
same,"viability, T/C","second compound 0.00316 µM, first compound 0.949 µM",38.4%
same,"viability, T/C","second compound 0.00316 µM, first compound 3 µM",18.7%
same,"viability, T/C","second compound 0.01 µM, first compound 0.00949 µM",79.7%
same,"viability, T/C","second compound 0.01 µM, first compound 0.03 µM",85.1%
same,"viability, T/C","second compound 0.01 µM, first compound 0.0949 µM",80.3%
same,"viability, T/C","second compound 0.01 µM, first compound 0.3 µM",64.1%
same,"viability, T/C","second compound 0.01 µM, first compound 0.949 µM",36.4%
same,"viability, T/C","second compound 0.01 µM, first compound 3 µM",21.9%
same,"viability, T/C","second compound 0.0316 µM, first compound 0.00949 µM",80.4%
same,"viability, T/C","second compound 0.0316 µM, first compound 0.03 µM",90.6%
same,"viability, T/C","second compound 0.0316 µM, first compound 0.0949 µM",78.7%
same,"viability, T/C","second compound 0.0316 µM, first compound 0.3 µM",45.7%
same,"viability, T/C","second compound 0.0316 µM, first compound 0.949 µM",30.2%
same,"viability, T/C","second compound 0.0316 µM, first compound 3 µM",23.8%
same,"viability, T/C","second compound 0.1 µM, first compound 0.00949 µM",77.6%
same,"viability, T/C","second compound 0.1 µM, first compound 0.03 µM",60.8%
same,"viability, T/C","second compound 0.1 µM, first compound 0.0949 µM",62.1%
same,"viability, T/C","second compound 0.1 µM, first compound 0.3 µM",47.4%
same,"viability, T/C","second compound 0.1 µM, first compound 0.949 µM",22.9%
same,"viability, T/C","second compound 0.1 µM, first compound 3 µM",16.8%
same,"viability, T/C","second compound 0.316 µM, first compound 0.00949 µM",70.2%
same,"viability, T/C","second compound 0.316 µM, first compound 0.03 µM",82.6%
same,"viability, T/C","second compound 0.316 µM, first compound 0.0949 µM",53.6%
same,"viability, T/C","second compound 0.316 µM, first compound 0.3 µM",37.1%
same,"viability, T/C","second compound 0.316 µM, first compound 0.949 µM",29.2%
same,"viability, T/C","second compound 0.316 µM, first compound 3 µM",24.2%
same,"viability, T/C","second compound 1 µM, first compound 0.00949 µM",57%
same,"viability, T/C","second compound 1 µM, first compound 0.03 µM",42%
same,"viability, T/C","second compound 1 µM, first compound 0.0949 µM",38.2%
same,"viability, T/C","second compound 1 µM, first compound 0.3 µM",19.8%
same,"viability, T/C","second compound 1 µM, first compound 0.949 µM",28.7%
same,"viability, T/C","second compound 1 µM, first compound 3 µM",12.7%
CCN1CCN(Cc2ccc(Nc3ncc(F)c(-c4cc(F)c5nc(C)n(C(C)C)c5c4)n3)nc2)CC1 + COc1c(OCCCN2CCOCC2)ccc2c3n(c(=NC(=O)c4cnc(N)nc4)nc12)CCN3,IC50,second compound 0.00316 µM,> 1000 nM
same,IC50,second compound 0.01 µM,816 nM
same,IC50,second compound 0.0316 µM,330 nM
same,IC50,second compound 0.1 µM,9.08 nM
same,IC50,second compound 0.316 µM,< 3.16 nM
same,IC50,second compound 1 µM,< 3.16 nM
same,"viability, T/C",[1],81.7%
same,"viability, T/C",[2],92%
same,"viability, T/C",[3],79.2%
same,"viability, T/C",[4],60.8%
same,"viability, T/C","second compound 0.00316 µM, first compound 0.316 µM",77.3%
same,"viability, T/C","second compound 0.00316 µM, first compound 1 µM",48.6%
same,"viability, T/C",[5],84.3%
same,"viability, T/C",[6],105%
same,"viability, T/C",[7],97%
same,"viability, T/C",[8],83.6%
same,"viability, T/C","second compound 0.01 µM, first compound 0.316 µM",71.2%
same,"viability, T/C","second compound 0.01 µM, first compound 1 µM",45.5%
same,"viability, T/C",[9],89.2%
same,"viability, T/C",[10],85.6%
same,"viability, T/C",[11],80.9%
same,"viability, T/C",[12],57%
same,"viability, T/C","second compound 0.0316 µM, first compound 0.316 µM",59.6%
same,"viability, T/C","second compound 0.0316 µM, first compound 1 µM",23.7%
same,"viability, T/C",[13],81.3%
same,"viability, T/C",[14],46%
same,"viability, T/C",[15],49.2%
same,"viability, T/C",[16],49.1%
same,"viability, T/C","second compound 0.1 µM, first compound 0.316 µM",44.4%
same,"viability, T/C","second compound 0.1 µM, first compound 1 µM",32%
same,"viability, T/C",[17],34.3%
same,"viability, T/C",[18],16.4%
same,"viability, T/C",[19],30.5%
same,"viability, T/C",[20],20.7%
same,"viability, T/C","second compound 0.316 µM, first compound 0.316 µM",23.7%
same,"viability, T/C","second compound 0.316 µM, first compound 1 µM",22.9%
same,"viability, T/C",[21],8.08%
same,"viability, T/C",[22],11.5%
same,"viability, T/C",[23],10.4%
same,"viability, T/C",[24],9.39%
same,"viability, T/C","second compound 1 µM, first compound 0.316 µM",7.45%
same,"viability, T/C","second compound 1 µM, first compound 1 µM",11.2%
CC(C)n1nc(-c2ccc3oc(N)nc3c2)c2c(N)ncnc21 + COc1c(OCCCN2CCOCC2)ccc2c3n(c(=NC(=O)c4cnc(N)nc4)nc12)CCN3,IC50,second compound 0.00316 µM,> 100 nM
same,IC50,second compound 0.01 µM,> 100 nM
same,IC50,second compound 0.0316 µM,54.9 nM
same,IC50,second compound 0.1 µM,5.17 nM
same,IC50,second compound 0.316 µM,< 0.316 nM
same,IC50,second compound 1 µM,< 0.316 nM
same,"viability, T/C","second compound 0.00316 µM, first compound 0.000316 µM",98.3%
same,"viability, T/C","second compound 0.00316 µM, first compound 0.001 µM",90.8%
same,"viability, T/C",[1],74.6%
same,"viability, T/C",[2],80.3%
same,"viability, T/C",[3],83%
same,"viability, T/C",[4],65.1%
same,"viability, T/C","second compound 0.01 µM, first compound 0.000316 µM",84.1%
same,"viability, T/C","second compound 0.01 µM, first compound 0.001 µM",76.4%
same,"viability, T/C",[5],87.8%
same,"viability, T/C",[6],80.5%
same,"viability, T/C",[7],62.3%
same,"viability, T/C",[8],60.2%
same,"viability, T/C","second compound 0.0316 µM, first compound 0.000316 µM",79.9%
same,"viability, T/C","second compound 0.0316 µM, first compound 0.001 µM",86.5%
same,"viability, T/C",[9],73.7%
same,"viability, T/C",[10],80.6%
same,"viability, T/C",[11],71%
same,"viability, T/C",[12],27%
same,"viability, T/C","second compound 0.1 µM, first compound 0.000316 µM",77.5%
same,"viability, T/C","second compound 0.1 µM, first compound 0.001 µM",51.7%
same,"viability, T/C",[13],56%
same,"viability, T/C",[14],46.8%
same,"viability, T/C",[15],38.7%
same,"viability, T/C",[16],16.9%
same,"viability, T/C","second compound 0.316 µM, first compound 0.000316 µM",28.4%
same,"viability, T/C","second compound 0.316 µM, first compound 0.001 µM",31.3%
same,"viability, T/C",[17],33.6%
same,"viability, T/C",[18],18.6%
same,"viability, T/C",[19],17.2%
same,"viability, T/C",[20],9.14%
same,"viability, T/C","second compound 1 µM, first compound 0.000316 µM",7.93%
same,"viability, T/C","second compound 1 µM, first compound 0.001 µM",6.08%
same,"viability, T/C",[21],9.7%
same,"viability, T/C",[22],5.56%
same,"viability, T/C",[23],8.2%
same,"viability, T/C",[24],2.93%
